Data reported in patent publication US20070074295A1 (priority 2000, published 2007).

Assays:
[1] = tested on: freely moving rats; experiment: Induction and maintenance of PCP-induced hypofunction: LCGU by 14C-2-deoxyglucose autoradiography; format: in vivo, rat
Experimental: An initial treatment period of intraperitoneal (i.p.) injections once daily for 5 days was carried out, followed by a maintenance schedule of i.p. injections three times weekly (every 60 hours) for a further 21 days.
Intermittent exposure to PCP during the maintenance phase of the model was favoured due to the long half life of the drug within brain tissue (Misra, A. L. et al). […] As a comparison to the present model, the inventors also investigated the effect of previously published subchronic treatment with PCP (Jentsch, J. D. et al) using quantitative C-2-deoxyglucose autoradiography (Sokoloff, L.)
Local cerebral glucose utilisation (LCGU) was measured using an adaptation of the original method for freely moving rats (Crane, A. M. et al) 72 hours after the initial induction phase (day 8) and 72 hours after the induction phase followed by the maintenance phase (day 29). LCGU was measured 72 hours after the last exposure to PCP so the effects of PCP on LCGU would be independent of the acute effects of the drug. […] Thus, using a dose of 2.59 mgkg^−1 the inventors had established a novel treatment paradigm which mimics the findings of human imaging studies in schizophrenic patients.

[2] = tested on: parvalbumin mRNA; experiment: Parvalbumin mRNA in situ hybridisation in chronic PCP model; format: in vivo, rat; conditions: chronic PCP treatment, alone or with clozapine or haloperidol
Experimental: In order to validate further this chronic PCP model the effect of this treatment paradigm on parvalbumin mRNA expression was investigated.
In situ hybridisation: a 45mer oligonucleotide probe was designed against bases 223-267 of the rat parvalbumin gene (GenBank accession number A819345). In situ hybridisation was carried out according to the method of Wisden and Morris (1994).

[3] = tested on: UNC5H1 (a netrin receptor); experiment: Rat Atlas Array, prefrontal cortex, chronic PCP model; format: in vivo
Experimental: Rats were injected with PCP (2.58 mg/kg) or vehicle i.p. for 5 days according to the YRING PCP model. […] On the same day, the rats began a course of i.p. injections every 2.5 days with either PCP (2.58 mg/kg) or vehicle.
21 days after minipump implantation, animals were killed by cervical dislocation and the prefrontal cortex dissected and stored at −70° C. RNA was then prepared according to the protocol below and the corresponding cDNA synthesis and hybridisation procedure were conducted using the rat Atlas Array kit according to the manufacturer's instructions (Clontech).
Results are expressed as mean relative optical densities ±SEM. Statistical significance was defined as P<0.05. N=¾ per group.
Frozen tissue already resides in the ribolyser tubes from the dissection procedure • 1) Add 1.1 ml Qiagen lysis buffer (containing β-mercaptoethanol, final volume =3%). • 2) Perform 3×20 sec homogenisations at 6.5 g in a ribolyser. • 3) Spin 3 min in microfuge. • 4) Decant to fresh tube and re-spin 3 min. • 5) Decide at this stage if you want to dilute supernatant with more lysis buffer. • 6) Add equal volume of phenol/CHCl3 pH4.7, vortex 30 sec and leave on ice for 10 min. • 7) Re-vortex and spin 4° C. 5-10 min at 1500 g. • 8) Decant supernatant and add 100 μl H2O. Add an equal volume of phenol/CHCl3 pH4.7, vortex, spin 5-10 min at 1500 g. • 9) Decant supernatant and add 100 μl H2O. […]

[4] = tested on: CIRL1 mRNA; experiment: Semi-quantitative RT-PCR, prefrontal cortex, chronic PCP and antipsychotic treatment; format: in vivo, rat; conditions: chronic PCP treatment
Experimental: FIG. 14 illustrates the level of CIRL1 mRNA present in the prefrontal cortex of rat brain following chronic PCP and antipsychotic treatment (n=12 for all groups apart from veh-veh where n=11). […] and […] (SEQ ID NOS: 25-26) were the primer sequences used to amplify this product.
RT-PCR for specific isoforms of CIRL was then conducted in the prefrontal cortex.
1 ml of lysis buffer (Qiagen), including 1% β-mercaptoethanol, was added to approximately 50-100 mg of brain tissue. Tissue samples were homogenised using a ribolyser (Hybaid) with 3 bursts at 6.5 g lasting 20 seconds each. Samples were then spun at room temperature in a microfuge for 3 minutes. The supernatant was removed and re-spun for a further 3 minutes. The supernatant was decanted to a fresh tube to which an equal volume of 70% ethanol was added. The remaining RNA isolation procedure was carried out according to the manufacturer's protocol (Qiagen).
Synthesis of cDNA was carried out according to manufacturers protocols (Life Technologies). Briefly 3-5μg of total RNA was reverse transcribed using oligo dT priming. After cDNA synthesis, samples were aliquoted and stored at −70° C. […]
Alterations in expression levels were determined by semi-quantitative PCR. […] Samples were removed over 4 consecutive cycles, however, the first cycle to be removed sometimes varied depending on when logarithmic amplification was detected. […]

SMILES: c1ccc(C2(N3CCCCC3)CCCCC2)cc1 [PCP, phencyclidine]
- maintenance of metabolic hypofunction by second phase of the model ([1]; 0.86 mgkg^−1 PCP): not, however, maintained
- LCGU, Au layer I ([1]; 0.86 mgkg^−1 PCP i.p., day 8): 127 ± 2 μmol/100 g/min
- LCGU, Au layers II, III&IV ([1]; 0.86 mgkg^−1 PCP i.p., day 8): 152 ± 3 μmol/100 g/min
- LCGU, Au layers V & VI ([1]; 0.86 mgkg^−1 PCP i.p., day 8): 114 ± 4 μmol/100 g/min
- LCGU, AuD layer I ([1]; 0.86 mgkg^−1 PCP i.p., day 8): 126 ± 3 μmol/100 g/min
- LCGU, AuD layers II, III&IV ([1]; 0.86 mgkg^−1 PCP i.p., day 8): 151 ± 4 μmol/100 g/min
- LCGU, AuD layers V & VI ([1]; 0.86 mgkg^−1 PCP i.p., day 8): 106 ± 2 μmol/100 g/min
- LCGU, DLL ([1]; 0.86 mgkg^−1 PCP i.p., day 8): 91 ± 4 μmol/100 g/min
- LCGU, MD ([1]; 0.86 mgkg^−1 PCP i.p., day 8): 112 ± 4 μmol/100 g/min
- LCGU, PrL layer I ([1]; 0.86 mgkg^−1 PCP i.p., day 8): 132 ± 6 μmol/100 g/min
- LCGU, PrL layers II & III ([1]; 0.86 mgkg^−1 PCP i.p., day 8): 150 ± 7 μmol/100 g/min
- LCGU, PrL layers V & VI ([1]; 0.86 mgkg^−1 PCP i.p., day 8): 115 ± 3 μmol/100 g/min
- LCGU, Rt ([1]; 0.86 mgkg^−1 PCP i.p., day 8): 106 ± 2 μmol/100 g/min
- LCGU, VLL ([1]; 0.86 mgkg^−1 PCP i.p., day 8): 98 ± 5 μmol/100 g/min
- LCGU, cochlear nucleus ([1]; 0.86 mgkg^−1 PCP i.p., day 8): 107 ± 3 μmol/100 g/min
- LCGU, mO layer ([1]; 0.86 mgkg^−1 PCP i.p., day 8): 110 ± 2 μmol/100 g/min
- LCGU, mO layers II & III ([1]; 0.86 mgkg^−1 PCP i.p., day 8): 127 ± 2 μmol/100 g/min
- LCGU, mO layers V & VI ([1]; 0.86 mgkg^−1 PCP i.p., day 8): 129 ± 5 μmol/100 g/min
- LCGU, Au layer I ([1]; 0.86 mgkg^−1 PCP i.p., day 29): 167 ± 14 μmol/100 g/min
- LCGU, Au layers II, III&IV ([1]; 0.86 mgkg^−1 PCP i.p., day 29): 189 ± 12 μmol/100 g/min
- LCGU, Au layers V & VI ([1]; 0.86 mgkg^−1 PCP i.p., day 29): 137 ± 10 μmol/100 g/min
- LCGU, AuD layer I ([1]; 0.86 mgkg^−1 PCP i.p., day 29): 159 ± 11 μmol/100 g/min
- LCGU, AuD layers II, III&IV ([1]; 0.86 mgkg^−1 PCP i.p., day 29): 178 ± 10 μmol/100 g/min
- LCGU, AuD layers V & VI ([1]; 0.86 mgkg^−1 PCP i.p., day 29): 128 ± 9 μmol/100 g/min
- LCGU, DLL ([1]; 0.86 mgkg^−1 PCP i.p., day 29): 116 ± 8 μmol/100 g/min
- LCGU, MD ([1]; 0.86 mgkg^−1 PCP i.p., day 29): 122 ± 5 μmol/100 g/min
- LCGU, PrL layer I ([1]; 0.86 mgkg^−1 PCP i.p., day 29): 133 ± 2 μmol/100 g/min
- LCGU, PrL layers II & III ([1]; 0.86 mgkg^−1 PCP i.p., day 29): 149 ± 2 μmol/100 g/min
- LCGU, PrL layers V & VI ([1]; 0.86 mgkg^−1 PCP i.p., day 29): 112 ± 3 μmol/100 g/min
- LCGU, Rt ([1]; 0.86 mgkg^−1 PCP i.p., day 29): 108 ± 4 μmol/100 g/min
- LCGU, VLL ([1]; 0.86 mgkg^−1 PCP i.p., day 29): 118 ± 13 μmol/100 g/min
- LCGU, cochlear nucleus ([1]; 0.86 mgkg^−1 PCP i.p., day 29): 117 ± 2 μmol/100 g/min
- LCGU, mO layer ([1]; 0.86 mgkg^−1 PCP i.p., day 29): 122 ± 3 μmol/100 g/min
- LCGU, mO layers II & III ([1]; 0.86 mgkg^−1 PCP i.p., day 29): 135 ± 4 μmol/100 g/min
- LCGU, mO layers V & VI ([1]; 0.86 mgkg^−1 PCP i.p., day 29): 136 ± 3 μmol/100 g/min
- LCGU, Au layer I ([1]; 2.58 mgkg^−1 PCP i.p., day 8): 135 ± 3 μmol/100 g/min
- LCGU, Au layers II, III&IV ([1]; 2.58 mgkg^−1 PCP i.p., day 8): 166 ± 5 μmol/100 g/min
- LCGU, Au layers V & VI ([1]; 2.58 mgkg^−1 PCP i.p., day 8): 120 ± 4 μmol/100 g/min
- LCGU, AuD layer I ([1]; 2.58 mgkg^−1 PCP i.p., day 8): 135 ± 3 μmol/100 g/min
- LCGU, AuD layers II, III&IV ([1]; 2.58 mgkg^−1 PCP i.p., day 8): 151 ± 4 μmol/100 g/min
- LCGU, AuD layers V & VI ([1]; 2.58 mgkg^−1 PCP i.p., day 8): 104 ± 2 μmol/100 g/min
- LCGU, DLL ([1]; 2.58 mgkg^−1 PCP i.p., day 8): 83 ± 4 μmol/100 g/min
- LCGU, MD ([1]; 2.58 mgkg^−1 PCP i.p., day 8): 115 ± 4 μmol/100 g/min
- LCGU, PrL layer I ([1]; 2.58 mgkg^−1 PCP i.p., day 8): 104 ± 2 μmol/100 g/min
- LCGU, PrL layers II & III ([1]; 2.58 mgkg^−1 PCP i.p., day 8): 133 ± 2 μmol/100 g/min
- LCGU, PrL layers V & VI ([1]; 2.58 mgkg^−1 PCP i.p., day 8): 96 ± 3 μmol/100 g/min
- LCGU, Rt ([1]; 2.58 mgkg^−1 PCP i.p., day 8): 86 ± 2 μmol/100 g/min
- LCGU, VLL ([1]; 2.58 mgkg^−1 PCP i.p., day 8): 93 ± 3 μmol/100 g/min
- LCGU, cochlear nucleus ([1]; 2.58 mgkg^−1 PCP i.p., day 8): 98 ± 3 μmol/100 g/min
- LCGU, mO layer ([1]; 2.58 mgkg^−1 PCP i.p., day 8): 105 ± 4 μmol/100 g/min
- LCGU, mO layers II & III ([1]; 2.58 mgkg^−1 PCP i.p., day 8): 127 ± 5 μmol/100 g/min
- LCGU, mO layers V & VI ([1]; 2.58 mgkg^−1 PCP i.p., day 8): 115 ± 1 μmol/100 g/min
- LCGU, Au layer I ([1]; 2.58 mgkg^−1 PCP i.p., day 29): 137 ± 5 μmol/100 g/min
- LCGU, Au layers II, III&IV ([1]; 2.58 mgkg^−1 PCP i.p., day 29): 162 ± 6 μmol/100 g/min
- LCGU, Au layers V & VI ([1]; 2.58 mgkg^−1 PCP i.p., day 29): 115 ± 3 μmol/100 g/min
- LCGU, AuD layer I ([1]; 2.58 mgkg^−1 PCP i.p., day 29): 130 ± 7 μmol/100 g/min
- LCGU, AuD layers II, III&IV ([1]; 2.58 mgkg^−1 PCP i.p., day 29): 146 ± 7 μmol/100 g/min
- LCGU, AuD layers V & VI ([1]; 2.58 mgkg^−1 PCP i.p., day 29): 101 ± 4 μmol/100 g/min
- LCGU, DLL ([1]; 2.58 mgkg^−1 PCP i.p., day 29): 96 ± 5 μmol/100 g/min
- LCGU, MD ([1]; 2.58 mgkg^−1 PCP i.p., day 29): 116 ± 3 μmol/100 g/min
- LCGU, PrL layer I ([1]; 2.58 mgkg^−1 PCP i.p., day 29): 107 ± 4 μmol/100 g/min
- LCGU, PrL layers II & III ([1]; 2.58 mgkg^−1 PCP i.p., day 29): 116 ± 1 μmol/100 g/min
- LCGU, PrL layers V & VI ([1]; 2.58 mgkg^−1 PCP i.p., day 29): 89 ± 2 μmol/100 g/min
- LCGU, Rt ([1]; 2.58 mgkg^−1 PCP i.p., day 29): 89 ± 2 μmol/100 g/min
- LCGU, VLL ([1]; 2.58 mgkg^−1 PCP i.p., day 29): 99 ± 4 μmol/100 g/min
- LCGU, cochlear nucleus ([1]; 2.58 mgkg^−1 PCP i.p., day 29): 94 ± 4 μmol/100 g/min
- LCGU, mO layer ([1]; 2.58 mgkg^−1 PCP i.p., day 29): 108 ± 5 μmol/100 g/min
- LCGU, mO layers II & III ([1]; 2.58 mgkg^−1 PCP i.p., day 29): 124 ± 5 μmol/100 g/min
- LCGU, mO layers V & VI ([1]; 2.58 mgkg^−1 PCP i.p., day 29): 111 ± 3 μmol/100 g/min
- LCGU in medial orbital cortex, prelimbic cortex, auditory pathway, reticular nucleus of the thalamus ([1]; 2.58 mgkg^−1 PCP, after both phases of the model): induced a metabolic hypofunction
- effect on LCGU within any brain area ([1]; subchronic PCP 5 mgkg^−1 twice daily for seven days (data not shown)): did not produce any significant effect
- parvalbumin mRNA, prelimbic region of the prefrontal cortex [2]: 0.0536±0.0023 relative optical density (ROD)
- parvalbumin mRNA, ventral reticular nucleus of the thalamus [2]: 0.5032±0.0194 ROD
- UNC5H1 expression (Atlas Array) [3]: 3936 ± 472 relative optical densities
- expression of CIRL1 (RT-PCR) [4]: reduced
